Source: US8846947B2, “Benzimidazoles and related analogs as sirtuin modulators” (GlaxoSmithKline LLC, priority 2008, dated 2014)

Each molecule was assayed against T1, SIRT1 (Homo sapiens, UniProt Q96EB6) (assay: Mass spectrometry based SIRT1 deacetylase activation assay (acetylated p53-derived peptide substrate)).
T1 sequence (Q96EB6 1-747): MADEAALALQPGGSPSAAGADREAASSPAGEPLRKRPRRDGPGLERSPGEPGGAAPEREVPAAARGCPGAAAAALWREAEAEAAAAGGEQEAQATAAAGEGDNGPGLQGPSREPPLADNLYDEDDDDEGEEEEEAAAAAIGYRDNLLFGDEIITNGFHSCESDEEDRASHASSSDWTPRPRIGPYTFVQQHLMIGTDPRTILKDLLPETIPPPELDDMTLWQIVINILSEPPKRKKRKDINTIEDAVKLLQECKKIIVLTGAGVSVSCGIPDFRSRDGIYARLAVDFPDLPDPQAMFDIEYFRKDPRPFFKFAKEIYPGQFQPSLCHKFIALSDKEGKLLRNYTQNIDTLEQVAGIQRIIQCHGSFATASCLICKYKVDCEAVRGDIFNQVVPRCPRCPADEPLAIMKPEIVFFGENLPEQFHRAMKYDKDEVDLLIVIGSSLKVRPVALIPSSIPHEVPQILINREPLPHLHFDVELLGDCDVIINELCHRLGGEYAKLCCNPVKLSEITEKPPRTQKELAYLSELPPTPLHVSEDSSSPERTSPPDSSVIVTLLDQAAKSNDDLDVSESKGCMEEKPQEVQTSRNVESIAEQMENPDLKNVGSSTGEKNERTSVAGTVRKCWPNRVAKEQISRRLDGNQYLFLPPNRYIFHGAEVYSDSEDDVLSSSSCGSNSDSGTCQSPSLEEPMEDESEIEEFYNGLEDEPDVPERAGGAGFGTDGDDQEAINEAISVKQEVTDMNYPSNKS
Format: biochemical

| SMILES | EC1.5 | Fold Act. (percent maximum fold activation) |
| --- | --- | --- |
| O=C(Nc1cccc2[nH]c(-c3cccc(N4CCOCC4)c3)nc12)c1ccccn1 [Compound 367] | B (EC1.5 1-25 uM) | A (Fold activation >200%) |
| Cc1nc(-c2ccccc2)c(-c2nc3c(C(=O)Nc4nccs4)cccc3[nH]2)s1 [Compound 368] | A (EC1.5<1.0 uM) | A (Fold activation >200%) |
| Cc1nc(-c2ccccc2)c(-c2nc3c(C(=O)Nc4ccccn4)cccc3[nH]2)s1 [Compound 369] | A (EC1.5<1.0 uM) | A (Fold activation >200%) |
| Cc1nc(-c2ccccc2)c(-c2nc3c(C(=O)Nc4cccnc4)cccc3[nH]2)s1 [Compound 370] | A (EC1.5<1.0 uM) | A (Fold activation >200%) |
| CN1CCOc2cc(-c3nc4c(C(=O)Nc5nccs5)cccc4[nH]3)cnc21 [Compound 371] | A (EC1.5<1.0 uM) | A (Fold activation >200%) |
| CN1CCOc2cc(-c3nc4c(C(=O)Nc5cccnc5)cccc4[nH]3)cnc21 [Compound 372] | A (EC1.5<1.0 uM) | A (Fold activation >200%) |
| O=C(Nc1cccnc1)c1cccc2[nH]c(-c3ccnc(N4CCCCC4)c3)nc12 [Compound 373] | B (EC1.5 1-25 uM) | A (Fold activation >200%) |
| O=C(NC1CCOC1=O)c1cccc2[nH]c(-c3ccc(F)cc3C(F)(F)F)nc12 (stereo not shown) [Compound 374] | C (EC1.5 >25 uM) | B (Fold Activation <200%) |
| Cc1cc(NC(=O)c2cccc3[nH]c(-c4ccc(F)cc4C(F)(F)F)nc23)n(C)n1 [Compound 375] | A (EC1.5<1.0 uM) | A (Fold activation >200%) |
| Cc1cnc(NC(=O)c2cccc3[nH]c(-c4cc(F)ccc4C(F)(F)F)nc23)s1 [Compound 376] | A (EC1.5<1.0 uM) | A (Fold activation >200%) |
| Cc1nc(NC(=O)c2cccc3[nH]c(-c4cc(F)ccc4C(F)(F)F)nc23)sc1C [Compound 377] | A (EC1.5<1.0 uM) | A (Fold activation >200%) |
| O=C(NC1CCOC1=O)c1cccc2[nH]c(-c3cc(F)ccc3C(F)(F)F)nc12 (stereo not shown) [Compound 378] | C (EC1.5 >25 uM) | B (Fold Activation <200%) |
| Cc1cc(C)nc(NC(=O)c2cccc3[nH]c(-c4cc(F)ccc4C(F)(F)F)nc23)c1 [Compound 379] | A (EC1.5<1.0 uM) | A (Fold activation >200%) |
| Cc1cc(NC(=O)c2cccc3[nH]c(-c4cc(F)ccc4C(F)(F)F)nc23)n(C)n1 [Compound 380] | A (EC1.5<1.0 uM) | A (Fold activation >200%) |
| Cc1cnc(NC(=O)c2cccc3[nH]c(-c4ccnn4-c4ccccc4)nc23)s1 [Compound 381] | A (EC1.5<1.0 uM) | A (Fold activation >200%) |
| Cc1nc(NC(=O)c2cccc3[nH]c(-c4cccc(N5CCOCC5)c4)nc23)sc1C [Compound 382] | A (EC1.5<1.0 uM) | A (Fold activation >200%) |
| CC1(C)Cc2cccc(-c3nc4c(C(=O)Nc5nccs5)cccc4[nH]3)c2O1 [Compound 383] | B (EC1.5 1-25 uM) | B (Fold Activation <200%) |
| O=C(Nc1cccc2[nH]c(-c3cc(F)ccc3C(F)(F)F)nc12)c1cscn1 [Compound 384] | B (EC1.5 1-25 uM) | A (Fold activation >200%) |
| O=C(Nc1cccc2[nH]c(-c3cc(F)ccc3C(F)(F)F)nc12)c1ccccn1 [Compound 385] | B (EC1.5 1-25 uM) | A (Fold activation >200%) |
| O=C(Nc1cccc2[nH]c(-c3cc(F)ccc3C(F)(F)F)nc12)c1cccnc1 [Compound 386] | B (EC1.5 1-25 uM) | A (Fold activation >200%) |
